US7485324B2, “Use of exogenous gaseous nitric oxide in the treatment and disinfection of biofilms” (Pulmonox Technologies Corporation, priority 2003, dated 2009)

Tests used:
[1] = system: B. cenocepacia C8963; assay: Biofilm formation in 96-well microtiter dish assay (crystal violet staining, A595); assay type: cell-based, Burkholderia cenocepacia; conditions: for C8963 biofilm growth in the presence of gNO compared with absence of gNO: 200 ppm gNO; for Average A595 (C8 + NO), biofilm formation: experiment 2
Protocol: (§1) Objective: To determine if exposure to gaseous nitric oxide (gNO) affects the ability of B. cenocepacia C8963 to form a biofilm in a 96-well microtiter dish assay.
(§2) Methods: B. cenocepacia C8963, a non-mucoid isolate from a cystic fibrosis (CF) patient, and C9343, a mucoid isolate from the same patient, were spotted on Luria Broth agar and grown at 37° C. overnight. Luria broth containing 0.5% (w/v) casamino acids was dispensed into 96-well polypropylene microtiter dishes (100 μl per well) and the wells inoculated with the C8963 or C9343 using a pin-inoculation device. Blank wells were not inoculated. Dishes were incubated in a humidified, closed plastic container for 24 hours at 37° C. (experiment 1) or in the outer chamber of the matrix incubator (a humidified incubator with controlled air flow) for 27 hours at 37° C. (experiment 2). At 24 hours (experiment 1) or 27 hours (experiment 2), one dish was processed for staining of the bacterial biofilms. The remaining dishes were incubated in the inner treatment arms of the matrix incubator at 37° C. in the presence or absence of 200 ppm gNO. One dish for each of the conditions (+gNO or −gNO) was processed for biofilm staining at 32, 36, and 48 hours.
(§3) To stain biofilm growth, planktonic bacteria were removed from the microtitre dishes by discarding media and cells. Biofilms were washed to remove remaining non-adherent bacteria in two successive tap water washes. Water was shaken from the wells and the dishes inverted and tapped vigorously on a stack of paper towels to remove as much water as possible. Adherent growth was stained by adding 125 μlof a 0.1% (w/v) solution of crystal violet to each well and incubating at room temperature for 15 minutes. Crystal violet was discarded as for the previous washes and excess stain was removed in three successive tap-water washes. Excess water was removed by vigorous tapping as before and the stained dishes allowed to air dry.
(§4) To quantitate biofilm formation, 200 μl of 95% ethanol was added to each well, incubated at room temperature for 15 minutes, and 125 μl from each well was removed to a clean flat-bottomed polystyrene microtitre dish. The absorbance at 595 nm was read on a Bio-Rad Model 3550 Microplate Reader. The average reading from “Blank” (uninoculated) wells containing only media was subtracted from each “Test” well. The [Test-Blank] averages and standard errors of the mean (SEM) were calculated for each condition and time.

[2] = system: B. cenocepacia C9343; assay: as above; assay type: cell-based, Burkholderia cenocepacia; conditions: 200 ppm gNO; experiment 1
Protocol: as §1, §2, §3, §4

[N]=O [gNO, nitric oxide]
Effect on biofilm formation of C8963 ([1]; 200 ppm final concentration of gNO): inhibited biofilm formation
C8963 biofilm growth in the presence of gNO compared with absence of gNO ([1]; at 32 hours, experiments 1 and 2): greater than in the absence of gNO
C8963 biofilm growth in the presence of gNO compared with absence of gNO ([1]; by 36 hours, experiments 1 and 2): significantly lower than in the absence of gNO
C8963 biofilm growth in the presence of gNO compared with absence of gNO ([1]; remaining time points up to 48 hours, both experiments): consistently lower
Average A595 (C8 + NO), biofilm formation ([1]; time 27 h, after 27 hours in air, before exposure to 200 ppm gNO): 0.076
Average A595 (C8 + NO), biofilm formation ([1]; time 32 h, 200 ppm gNO from 27 h, 37° C.): 0.282
Average A595 (C8 + NO), biofilm formation ([1]; time 36 h, 200 ppm gNO from 27 h, 37° C.): 0.252
Average A595 (C8 + NO), biofilm formation ([1]; time 48 h, 200 ppm gNO from 27 h, 37° C.): 0.334
Effect on biofilm growth of C8963 ([1]; low initial concentrations of gNO): enhanced biofilm growth
Induction of biofilm formation by mucoid C9343 [2]: did not induce biofilm formation
